What was measured:
Balb/C mice = assay: Delay in tail-flick in mice from a standardized heat injury; format: in vivo
Description: Using p-endorphin as prepared in Example 2 tests of the delay in tail-flick in mice from a standardized heat injury were conducted under our direction and control as follows: Inbred mice (in this case Balb/C males weighing 20 to 25 gms) were held in a special body holder in cotton and a standardized "heat-run" or lamp was held a standardized distance away from the base of the tail which was painted black with india ink to increase the amount of energy it absorbs. On the average, 3.5 seconds of this heat is enough to cause these mice to flick their tail in a vigorous fashion. This end-point is unmistakable. The standard deviation of 50 determinations of this kind is approximately 0.7 seconds. Therefore, the normal range of large numbers of these mice with multiple determinations would be about 2.2 to 4.8 seconds.
The data set forth below in Table 1 illustrate the amount of time for the onset of tail flicking by mice tested at various times after the injection of […] of p-endorphin (P-EP).

mice = settings: stated as known characteristic; cited from earlier work

In the case of “beta-endorphin (YGGFMTSEKSQTPLVTLFKNAIIKNAYKKGE; Beta-endorphin; UniProt P01189 237-267, looked up) [endogenous opioid peptide hormone, 61 to 91 portion of beta lipotropin; standard]”, the delay in tail-flick (Balb/C mice; mice) is listed as “more than 10 seconds”, the “amount required to obtain the same in vivo effect” value (Balb/C mice; same tail-flick effect as 30 μg P-EP preparation) is listed as “about 0.8 nanamoles per mouse” and the Staub tail (mice) is listed as “characteristic”.
